The record followed here is paper PMC8248439, “Activation, Structure, Biosynthesis and Bioactivity of Glidobactin‐like Proteasome Inhibitors from Photorhabdus laumondii” (Chembiochem, 2021).

Like-named read-outs stand apart in the source and are kept apart here. A value given as a limit tells only on which side of the number the result lay.

Holding throughout (format): biochemical
The target in assay [1] is T1, yeast 20S proteasome (yCP) β5 subunit (ChTL) (Saccharomyces cerevisiae, UniProt P23724+P30656).
T1 construct: gene PRE2; yeast 20S proteasome core particle; with β6 subunit of yCP
T1 sequence (P30656 76-287): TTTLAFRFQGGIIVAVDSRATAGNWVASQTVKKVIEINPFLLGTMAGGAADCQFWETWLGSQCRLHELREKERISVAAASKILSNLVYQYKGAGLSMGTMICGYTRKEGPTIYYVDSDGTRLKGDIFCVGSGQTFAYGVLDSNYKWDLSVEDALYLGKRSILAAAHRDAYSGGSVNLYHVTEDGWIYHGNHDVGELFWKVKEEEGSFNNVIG
T1 sequence (P23724 20-241): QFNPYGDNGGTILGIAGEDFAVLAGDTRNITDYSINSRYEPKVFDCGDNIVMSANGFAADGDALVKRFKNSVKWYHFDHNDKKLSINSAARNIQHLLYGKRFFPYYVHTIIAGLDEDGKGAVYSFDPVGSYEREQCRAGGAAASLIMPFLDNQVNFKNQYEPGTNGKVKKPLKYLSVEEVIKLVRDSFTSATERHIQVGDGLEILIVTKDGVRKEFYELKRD
The experiment in a line: X-ray crystal structure ([…] Å) and ChTL activity inhibition assay of yCP.

The target of assay [2] is T2, yeast 20S proteasome (yCP) β2 subunit (TL) (Saccharomyces cerevisiae, UniProt P25043).
T2 construct: gene PUP1; yeast 20S proteasome core particle
T2 sequence (P25043 30-261): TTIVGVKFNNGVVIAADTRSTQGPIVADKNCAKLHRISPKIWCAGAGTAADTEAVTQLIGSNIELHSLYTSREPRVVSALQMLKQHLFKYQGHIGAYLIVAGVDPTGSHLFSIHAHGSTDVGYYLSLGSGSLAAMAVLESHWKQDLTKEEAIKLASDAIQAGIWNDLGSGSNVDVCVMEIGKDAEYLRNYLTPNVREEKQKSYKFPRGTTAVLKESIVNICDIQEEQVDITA
In words: X-ray crystal structure ([…] Å), mM soaking; weaker TL inhibition.

Assay [3] addresses T1, yeast 20S proteasome (yCP) β5 subunit (ChTL). The experiment in a line: X-ray crystal structure ([…] Å) and ChTL activity inhibition assay of yCP. The source holds these as a separate data set.
In assay [4] the target is T2, yeast 20S proteasome (yCP) β2 subunit (TL). The experiment in a line: X-ray crystal structure ([…] Å), mM soaking; weaker TL inhibition. The source holds these as a separate data set.

In general, IC50 refers to the point on the concentration scale where inhibition reaches its midpoint. As for `CC1C=CC(=O)NCCC(O)CC(NC(=O)C(NC(=O)C=Cc2ccccc2)C(C)O)C(=O)N1` (stereo not shown) [compound 5], the results for the half-maximal inhibitory concentration (IC50) in assay [1] and in assay [2] were 0.107 µM and above 0.2 µM, respectively.

As for `CC1C=CC(=O)NCCC(O)CC(NC(=O)C(NC(=O)C=CC=Cc2ccccc2)C(C)O)C(=O)N1` (stereo not shown) [compound 4], the figures for the 50% inhibitory concentration (IC50) in assay [3] and in assay [4] were 0.073 µM and above 0.2 µM, respectively.
